This is an account of results in patent US20090130707A1, “Methods of reducing the inhibitory effect of a redox active metal ion on the enzymatic hydrolysis of cellulosic material” (priority 2007, published 2009).

Experiment [1] deals with Cellulolytic Enzyme Composition #1. Kind of experiment: mini-scale AVICEL hydrolysis by Cellulolytic Enzyme Composition #1. Format: biochemical, Trichoderma reesei. The procedure:
FIGS. 19A, 19B, 19C, and 19D show the effective inhibitory concentration range of Fe(II) on the hydrolysis of AVICEL® by Cellulolytic Enzyme Composition #1 (A and B) and on the hydrolysis of PASC by Cellulolytic Enzyme Composition #1 (C and D). The AVICEL® hydrolysis was conducted with […] of AVICEL® and 0.25 g of Cellulolytic Enzyme Composition #1 per liter of 50 mM sodium acetate pH 5 at 50° C. FeSO4 (mM): (∘) 0, (+) 1, (Δ) 3, (⋄) 5, (□) 10. Dixon plot linear regression line: 1/Rate=(0.035±0.003)[Fe(II)]+(0.043±0.015), r^2=0.978. Rate was estimated from the hydrolysis difference (%) at 24 and 6 hours. The PASC hydrolysis was conducted with 2 g of PASC and 50 mg of Cellulolytic Enzyme Composition #1 per liter of 50 mM sodium acetate pH 5 at 50° C. Dixon plot linear regression line: 1/Rate=(0.0042±0.0003)[Fe(II)]+(0.059±0.002), r^2=0.994. Rates were estimated from the hydrolysis difference (%) at 7 hours.
(§1) The effect of various salts (FeSO4, FeCl2, NaCl, Na2SO4, MnSO4, MnCl2) was determined in the hydrolysis of PCS by Cellulolytic Enzyme Composition #2. The PCS hydrolysis was performed in duplicate in capped 1.7 ml EPPENDORF® tubes (“mini-scale”) containing 1 ml suspensions of 43.4 g of PCS (dry weight) per liter, 10 mM salts in 50 mM sodium acetate pH 5. Cellulolytic Enzyme Composition #2 was added at 0.25 g per liter. Reactions without the addition of the salt served as controls. The capped tubes were incubated at 50° C. in an INNOVA® 4080 incubator shaker (New Brunswick Scientific Co., Inc., Edison, N.J., USA) at 150 rpm.
In one series of “mini-scale” hydrolysis reactions performed according to the procedure described in Example 30, the effect of 1 mM to 10 mM FeSO4 was evaluated in the hydrolysis of AVICEL® by Cellulolytic Enzyme Composition #1.

For experiment [2], the target named is T1, Aspergillus oryzae CEL3A beta-glucosidase (Aspergillus oryzae, UniProt Q2UUD6).
T1 construct: made in house
T1 sequence (Q2UUD6 20-861): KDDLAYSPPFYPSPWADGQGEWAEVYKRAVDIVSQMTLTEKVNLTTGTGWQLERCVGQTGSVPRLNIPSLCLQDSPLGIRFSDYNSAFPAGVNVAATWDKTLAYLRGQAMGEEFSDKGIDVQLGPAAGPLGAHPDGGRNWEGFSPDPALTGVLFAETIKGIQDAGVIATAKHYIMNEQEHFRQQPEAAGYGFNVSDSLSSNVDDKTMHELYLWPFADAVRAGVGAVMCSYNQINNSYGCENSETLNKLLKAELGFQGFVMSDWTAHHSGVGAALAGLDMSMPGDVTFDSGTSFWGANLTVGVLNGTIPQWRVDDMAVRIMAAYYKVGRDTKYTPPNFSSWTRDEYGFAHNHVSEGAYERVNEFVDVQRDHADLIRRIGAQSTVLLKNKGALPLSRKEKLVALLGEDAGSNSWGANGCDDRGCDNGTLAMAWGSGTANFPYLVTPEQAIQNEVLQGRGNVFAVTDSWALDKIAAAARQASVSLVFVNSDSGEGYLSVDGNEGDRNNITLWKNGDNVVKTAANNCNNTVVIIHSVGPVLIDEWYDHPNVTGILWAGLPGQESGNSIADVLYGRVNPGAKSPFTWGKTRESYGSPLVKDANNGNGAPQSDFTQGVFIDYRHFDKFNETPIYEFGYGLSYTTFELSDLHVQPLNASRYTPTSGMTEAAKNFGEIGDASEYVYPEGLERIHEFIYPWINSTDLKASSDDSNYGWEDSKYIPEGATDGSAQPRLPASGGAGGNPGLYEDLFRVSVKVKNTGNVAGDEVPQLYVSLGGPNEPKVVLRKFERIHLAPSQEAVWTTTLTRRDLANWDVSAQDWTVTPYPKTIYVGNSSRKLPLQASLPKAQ
Kind of experiment: Cellobiose hydrolysis by CEL3A beta-glucosidase. Format: biochemical. The following applies: 10 mM FeSO4; 2 g cellobiose and 1 mg enzyme per liter (FIG. 21). The procedure: The Fe(II) inhibition of Aspergillus oryzae CEL3A beta-glucosidase was measured similarly, except cellobiose replaced PASC. The initial rate vs Fe(II) concentration plots appeared as “mixed” type, whose complexity prevented extraction of Kis.

The target in experiment [3] is T2, Trichoderma reesei Cel7A cellobiohydrolase I (Trichoderma reesei, UniProt P62694).
T2 construct: made in house
T2 sequence (P62694 18-513): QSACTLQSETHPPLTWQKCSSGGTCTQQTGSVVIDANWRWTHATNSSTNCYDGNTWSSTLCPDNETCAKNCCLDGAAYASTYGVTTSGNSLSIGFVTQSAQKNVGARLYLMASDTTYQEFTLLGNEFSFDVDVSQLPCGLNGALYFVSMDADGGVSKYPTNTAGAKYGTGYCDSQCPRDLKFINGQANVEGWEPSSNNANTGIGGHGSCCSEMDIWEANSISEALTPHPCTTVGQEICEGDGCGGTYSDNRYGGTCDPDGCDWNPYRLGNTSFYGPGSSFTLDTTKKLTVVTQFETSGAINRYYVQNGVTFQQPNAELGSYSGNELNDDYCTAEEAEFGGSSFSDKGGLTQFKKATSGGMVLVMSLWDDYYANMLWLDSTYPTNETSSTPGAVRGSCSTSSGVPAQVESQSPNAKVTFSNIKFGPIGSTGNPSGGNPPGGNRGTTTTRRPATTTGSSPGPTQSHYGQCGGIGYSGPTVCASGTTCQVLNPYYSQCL
Kind of experiment: PASC hydrolysis by Cel7A cellobiohydrolase I. The following applies: 10 mM FeSO4; 2 g PASC and 40 mg enzyme per liter (FIG. 20A). Format: biochemical.

In experiment [4] the target is Trichoderma reesei Cel6A cellobiohydrolase II (Trichoderma reesei, UniProt P07987). Particulars: 10 mM FeSO4; 2 g PASC and 40 mg enzyme per liter (FIG. 20B). The protocol: The inhibitory effect of ferrous ion was determined on Trichoderma reesei Cel7A cellobiohydrolase I, Trichoderma reesei Cel6A cellobiohydrolase II, Trichoderma reesei Cel7B endoglucanase I, and Trichoderma reesei Cel5A endoglucanase II using PASC as substrate.
Chain of Trichoderma reesei Cel6A cellobiohydrolase II (P07987 25-471): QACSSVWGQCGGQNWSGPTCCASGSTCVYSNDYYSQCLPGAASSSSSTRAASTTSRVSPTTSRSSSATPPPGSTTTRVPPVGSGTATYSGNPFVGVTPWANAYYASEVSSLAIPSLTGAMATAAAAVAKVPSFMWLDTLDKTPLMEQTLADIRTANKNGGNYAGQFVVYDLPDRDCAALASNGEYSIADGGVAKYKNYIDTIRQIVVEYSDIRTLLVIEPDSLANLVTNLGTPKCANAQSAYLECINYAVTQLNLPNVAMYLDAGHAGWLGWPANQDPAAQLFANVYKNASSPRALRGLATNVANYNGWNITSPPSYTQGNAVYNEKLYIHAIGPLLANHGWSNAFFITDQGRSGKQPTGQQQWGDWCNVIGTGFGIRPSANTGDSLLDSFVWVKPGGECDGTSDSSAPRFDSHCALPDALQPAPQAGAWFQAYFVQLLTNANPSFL
A series of duplicate “mini-scale” hydrolysis reactions were performed according to the procedure described in Example 30, except that 10 mM FeSO4 and 2 g of PASC (dry weight) and 40 mg of enzyme per liter of 50 mM sodium acetate pH 5 were used.

Experiment [5] has as its system Cellulolytic Enzyme Composition #1. The experiment in a line: mini-scale PCS hydrolysis by Cellulolytic Enzyme Composition #1. The class given is biochemical, Trichoderma reesei. The following applies: 10 mM FeSO4; 43 g PCS and 0.25 g enzyme per liter, pH 5, 50° C. The protocol:
as §1
Aliquots of the suspensions, sampled over time, were filtered by centrifugation using a 0.45 μm MULTISCREEN® HV membrane (Millipore, Billerica, Mass., USA) at 2000 rpm for 15 minutes using a SORVALL® RT7 centrifuge (Thermo Fisher Scientific, Waltham, Mass., USA). When not used immediately, the filtered sugary aliquots were frozen at −20° C. Sugar concentrations of the samples diluted in 0.005 M H2SO4 were measured after elution from a 4.6×250 mm AMINEX® HPX-87H column (Bio-Rad, Hercules, Calif., USA) by 0.005 M H2SO4 at a flow rate of 0.4 ml/minute at 65° C. with quantitation by integration of glucose and cellobiose using refractive index detection (CHEMSTATION®, AGILENT® 1100 HPLC, Agilent Technologies, Santa Clara, Calif., USA) calibrated with standards of glucose and cellobiose. The resultant equivalents were used to calculate the percentage of cellulose conversion for each reaction.
Example 30 was repeated with both Cellulolytic Enzyme Composition #1 and Cellulolytic Enzyme Composition #2. Soluble reducing sugars were measured by HPLC as described in Example 30. Reactions without the addition of FeSO4 served as controls.
The hydrolysis was performed in a series of duplicate “mini-scale” hydrolysis reactions according to the procedure described in Example 30.

On to Ferrous sulfate [FeSO4], for which the “Concentration dependence of inhibition” value in experiment [1] (1 mM to 10 mM FeSO4, AVICEL (FIG. 19A)) is “increasingly inhibitory”. For the same substance, the Ki in experiment [1] (on AVICEL, 23 g AVICEL and 0.25 g enzyme per liter, read-out: Ki (x-intercept of Dixon plot)) was ~1.3 mM. Further, the Effect on enzyme entry in experiment [2] was “slightly inhibited”; in experiment [3] it was “significantly inhibited”; in experiment [4], “significantly inhibited”. Moreover, the “Effect on PCS hydrolysis” value in experiment [5] is “significantly inhibited”.

A word on the Ki: it is a dissociation constant, usually derived from enzyme kinetics or from competition with a known ligand.
